Measured values taken from US4755522A, “Derivatives of N-[3-(2,4,6-trimethoxybenzoyl)propyl]piperidine, and their use in therapeutics” (priority 1986, dated 1988).
Where “and” joins values, the source holds several entries; their conditions need not be identical. Identical values can stand only once. Entries after “also recorded” stand apart in the source; their conditions may differ. Like-named read-outs stand apart in the source and are kept apart here.

Experiments:
[1] = tested on: mice; type: in vivo; settings: 260 mg/kg I.P. (footnote *)
[2] = tested on: cardio-vascular system; assay: Action on the cardio-vascular system in the anaesthetized dog; type: in vivo
Experimental: (b) Action on the cardio-vascular system (in the dog).
(§1) 3 dogs (average weight, 12 kg) anaesthetized with nembutal, receive the compound by intra-duodenal route at successive doses of 0.1-0.5-2.5-10 and 20 mg/kg.
The arterial pressure, the cardiac rate, the femoral arterial flow, the vertebral arterial flow, the rectal and skin temperatures are all measured. The coloration of the skin is observed.
(§2) 3 dogs (average weight, 14 kg) anaesthetized with nembutal, received the CRL 41,390 by intra-duodenal route, at successive doses of 0.1-0.5-1-2.5-5-10-20 mg/kg, then a supplementary dose of 10 mg/kg I.V.
The arterial pressure, the cardiac frequency, the femoral arterial flow, the vertebral arterial flow, the rectal and cutaneous temperatures, were measured. The coloration of the skin was observed.

[3] = tested on: isoprenaline; assay: Effects of isoprenaline on arterial pressure and cardiac rate after the compound (dog); type: in vivo
Experimental: as §2

[4] = tested on: noradrenaline; assay: Hypertension with noradrenaline after the compound (dog); type: in vivo
Experimental: as §1, §2
Hypertension to noradrenaline is not modified: at 2 mcg/kg of noradrenaline, the systolic arterial pressure passes, after administration of the product, from 160 to 290 mmHg/161 to 289 mmHg in the control.

[5] = tested on: ectopic heart-beats; assay: Ectopic heart-beats in dogs with coronary artery ligature a few weeks earlier; type: in vivo, dog; settings: I.D.; for minimal effective dose: Canis lupus familiaris, intraduodenal, read-out: dose re-establishing a normal rhythm
Experimental: as §1
Two of these three dogs having undergone a ligature of a coronary artery a few weeks earlier still presented numerous ectopic heart-beats.

[6] = tested on: arrhythmias caused by injection of adrenaline; assay: Arrhythmias caused by adrenaline + petroleum ether (dog); type: in vivo; settings: 39.1 mg/kg I.D.
Experimental: In the third dog, arrhythmias were caused by injection of adrenaline (10 mcg/kg), preceded by an intra-trachealinjection of petroleum ether (0.1 ml/kg before and after administration of the 39.1 mg/kg (in cumulative doses) of the compound. On the E.C.G., the number of beats of sinusoidal origin and the number of ectopic beats per minute are counted which follow the injection of adrenaline. |Dose of compound | Number of beats in 1 minute |mg/kg I.D. ectopic sinusoidal

[7] = tested on: left descending coronary artery ligature; assay: Dog with left descending coronary artery ligatured 24 hours earlier, I.V.; type: in vivo
Experimental: In a dog of which the left descending coronary artery had been ligatured 24 hours earlier, the compound was administered by intravenous route at increasing doses: 0.5-1-2.5-5-10 mg/kg. every 30 minutes.

[8] = tested on: arrhythmias caused by adrenaline; assay: Arrhythmias caused by adrenaline I.V., 4 days after coronary ligature (dog); type: in vivo
Experimental: 4 days after the ligature of the coronary, this same dog received injections I.V. of 5 mcg/kg of adrenaline which caused arrhythmias. The number of ectopic beats caused by adrenaline reduces starting from the dose of 5 mg/kg I.V. while the percentage of ectopic beats referred to the total cardiac frequency is 79% in comparison with 100% in the control and 46% 10 minutes after the dose of 10 mg/kg (64% after 40 minutes, 88% after 90 minutes).

[9] = tested on: awakened dog; assay: Toxic effects in the awakened dog, I.V. cumulative; type: in vivo
[10] = tested on: ventricular fibrillation (V.F.) by inhalation of chloroform; assay: Lawson's test in mice (ventricular fibrillation by inhalation of chloroform); type: in vivo
From the text: (c) Anti-arrhythmic action in the mouse. Research on the anti-arrhythmic activity by intraperitoneal route on Lawson's test in mice (ventricular fibrillation (V.F.) by inhalation of chloroform, all or nothing response) has given the following results (10 mice per dose).

[11] = tested on: arrhythmias with K-strophanthin; assay: Arrhythmias with K-strophanthin in the guinea-pig; type: in vivo; settings: 10 mg/kg I.V.
Experimental: (§3) The compound was administered by intravenous route at a dose of 10 mg/kg to a series of 10 albino guinea-pigs of 380 to 495 g, anaesthetized with urethane.
(§4) 5 minutes later, they receive an I.V. perfusion of the product causing arrhythmia at a dosage of 0.09 mg/min. in a volume of 0.6 ml/min.
(§5) The compound is compared with quinidine at a dose of 5 mg/kg I>V> and with a series of controls.
(§6) Lots are drawn for the treatments.
A--Action on arrhythmias with K-strophanthin.

[12] = tested on: arrhythmias with aconitine; assay: Arrhythmias with aconitine in the guinea-pig; type: in vivo
Experimental: as §3, §4, §5, §6
B--Action on arrhythmias with aconitine.

[13] = tested on: cardiac arrhythmias; assay: Treatment of cardiac arrhythmias in man; type: in vivo; settings: capsules or tablets 200 mg, 3 to 4 per day
Experimental: The compound of example 1 in the form of capsules or tablets with doses of 200 mg, 3 to 4 per day, has given good results in the treatment of cardiac arrhythmias in man.

COc1cc(OC)c(C(=O)CCCN2CCCC(CO)C2)c(OC)c1.Cl (stereo not shown) [CRL 41,391, N-[3-(2,4,6-trimethoxybenzoyl)propyl]-3-piperidinemethanol hydrochloride]
convulsions [1]: convulsions
effect on heart rate ([2]; 20 mg/kg I.D.): slightly reduces the heart rate
minimal effective dose ([2]; Canis lupus familiaris, intraduodenal, I.D., read-out: dose from which femoral flow increases): 5 mg/kg
effect on rectal and cutaneous temperatures ([2]; I.D.): does not modify the rectal and cutaneous temperatures
effect on vertebral flow ([2]; I.D.): reduces the vertebral flow
effect on femoral flow ([2]; I.D., starting at 5 mg/kg): increases the femoral flow
effect on the arterial pressure ([2]; intra-duodenal, successive doses to 20 mg/kg, nembutal): no effect on the arterial pressure
diastolic arterial pressure after the product, before isoprenaline ([3]; 39.1 mg/kg I.D. cumulative, control 120): 107 mmHg
cardiac rate after the product, before isoprenaline ([3]; 39.1 mg/kg I.D. cumulative, control 157): 160 beats/minute
diastolic arterial pressure after the product, with isoprenaline ([3]; 10 mcg/kg isoprenaline I.V., 39.1 mg/kg I.D. cumulative, control 37): 36 mmHg
change of diastolic arterial pressure with isoprenaline ([3]; 10 mcg/kg isoprenaline I.V., 39.1 mg/kg I.D. cumulative, control 83): 71 mmHg
cardiac rate after the product, with isoprenaline ([3]; 10 mcg/kg isoprenaline I.V., 39.1 mg/kg I.D. cumulative, control 273): 255 beats/minute
effects of isoprenaline on arterial pressure and cardiac rate ([3]; after accumulated dose 39.1 mg/kg I.D.): very slightly reduced
systolic pressure after the product, before noradrenaline ([4]; 39.1 mg/kg I.D. cumulative, control 153): 149 mmHg
systolic pressure after the product, with noradrenaline ([4]; 2 mcg/kg noradrenaline I.V., 39.1 mg/kg I.D. cumulative, control 271): 256 mmHg
hypertension with noradrenaline ([4]; after 39.1 mg/kg I.D. cumulative): slightly reduced
minimal effective dose ([5]; one dog): 2.5 mg/kg
minimal effective dose ([5]; the other dog): 10 mg/kg
normal rhythm ([5]; two dogs): re-established a normal rhythm in these two dogs
number of ectopic beats caused by adrenaline+petroleum ether [6]: strongly reduces the number of ectopic beats
Number of beats in 1 minute, sinusoidal ([6]; 35 at dose 0): 173
Number of beats in 1 minute, ectopic ([6]; 163 at dose 0): 26
sinusoidal beats ([7]; 2.5 mg/kg I.V.): ≥ 5%
sinusoidal beats ([7]; 5 mg/kg I.V., 5 minutes after injection): 19%
vomitting ([7]; 10 mg/kg I.V.): brief vomitting
sinusoidal beats ([7]; 20 minutes after the injection): 41%
sinusoidal beats ([7]; 40 minutes): 25%
sinusoidal beats ([7]; 60 minutes): 15%
minimal effective dose ([7]; Canis lupus familiaris, iv, I.V., zero sinusoidal beats in the control, read-out: dose from which sinusoidal beats increase): 2.5 mg/kg
change of cardiac frequency ([7]; after 10 mg/kg I.V.): -25%
cardiac frequency ([7]; after 10 mg/kg I.V., from 231): 174 beats/minute
ectopic beats referred to the total cardiac frequency ([8]; 5 mg/kg I.V., control 100%): 79%
ectopic beats referred to the total cardiac frequency ([8]; 10 mg/kg I.V., after 40 minutes): 64%
ectopic beats referred to the total cardiac frequency ([8]; 10 mg/kg I.V., after 90 minutes): 88%
ectopic beats referred to the total cardiac frequency ([8]; 10 minutes after 10 mg/kg I.V.): 46%
minimal effective dose ([8]; Canis lupus familiaris, iv, I.V., adrenaline 5 mcg/kg I.V., read-out: dose from which ectopic beats caused by adrenaline are reduced): 5 mg/kg
nictitating membrane ([9]; 70 mg/kg I.V. total): released for 10 minutes
vomiting, cumulative dose ([9]; I.V., 5 minutes after the injection, hydrochloride): 40 mg/kg and 70 mg/kg
somnolence ([9]; I.V., total 70 mg/kg): a certain somnolence was observed
% of mice not presenting V.F. ([10]; 5 mg/kg I.P.): 22%
% of mice not presenting V.F. ([10]; 10 mg/kg I.P.): 50%
% of mice not presenting V.F. ([10]; 20 mg/kg I.P.): 70%
appearance of incidents in the E.C.G. due to K-strophanthin [11]: significantly delays
cardiac frequency [11]: does not significantly modify the cardiac frequency
increase of cardiac frequency (average) ([12]; 10 mg/kg I.V.): 12 beats/minute
action on aconitine compared with quinidine ([12]; 10 mg/kg I.V. vs quinidine 5 mg/kg): greater than that observed after pre-treatment with 5 mg/kg of quinidine
cardiac frequency (conclusion, K-strophanthin and aconitine) ([12]; 10 mg/kg I.V., anaesthetized guinea-pig): without modifying or with very moderate increase in the cardiac frequency
appearance of incidents in the E.C.G. due to aconitine ([12]; 10 mg/kg I.V., hydrochloride): significantly retards; also recorded: significantly delays
treatment of cardiac arrhythmias in man [13]: good results
